In the supplement of paper PMC5908809:

What was measured:
[1] = tested on: normal primary NK cells, pool 1 (3 donors) (IL-2 2.5 ng/mL); test: percent inhibition of viability; higher = more inhibition; conditions: 72 h
YT (IL-2 2.5 ng/mL) [2] = test: as above; conditions: 72 h
NK-92 (IL-2 2.5 ng/mL) [3] = test: as above; conditions: 72 h
KHYG-1 (IL-2 2.5 ng/mL) [4] = test: as above; conditions: 72 h
SNK-6 (IL-2 2.5 ng/mL) [5] = test: as above; conditions: 72 h
NKL (IL-2 2.5 ng/mL) [6] = test: as above; conditions: 72 h
DERL-7 (IL-2 2.5 ng/mL) [7] = test: as above; conditions: 72 h
IMC-1 (IL-2 20 ng/mL) [8] = test: as above; conditions: 72 h
[9] = tested on: normal primary NK cells, pool 3 (3 donors) (IL-2 2.5 ng/mL); test: as above; conditions: 72 h
NK-YS (IL-2 2.5 ng/mL) [10] = test: as above; conditions: 72 h
[11] = tested on: normal primary NK cells, pool 2 (3 donors) (IL-2 2.5 ng/mL); test: as above; conditions: 72 h
[12] = tested on: normal primary NK cells, pool 1 (3 donors), resting (IL-2 0 ng/mL); test: as above; conditions: 72 h
KAI3 (IL-2 2.5 ng/mL) [13] = test: as above; conditions: 72 h
[14] = tested on: normal primary NK cells, pool 1 (3 donors) (IL-2 2.5 ng/mL); test: drug sensitivity score (DSS) (DSS units); higher = more sensitive; extreme values may be limits of the assay; conditions: 72 h
YT (IL-2 2.5 ng/mL) [15] = test: as above; conditions: 72 h
NK-92 (IL-2 2.5 ng/mL) [16] = test: as above; conditions: 72 h
KHYG-1 (IL-2 2.5 ng/mL) [17] = test: as above; conditions: 72 h
SNK-6 (IL-2 2.5 ng/mL) [18] = test: as above; conditions: 72 h
NKL (IL-2 2.5 ng/mL) [19] = test: as above; conditions: 72 h
DERL-7 (IL-2 2.5 ng/mL) [20] = test: as above; conditions: 72 h
IMC-1 (IL-2 20 ng/mL) [21] = test: as above; conditions: 72 h
[22] = tested on: normal primary NK cells, pool 3 (3 donors) (IL-2 2.5 ng/mL); test: as above; conditions: 72 h
NK-YS (IL-2 2.5 ng/mL) [23] = test: as above; conditions: 72 h
[24] = tested on: normal primary NK cells, pool 2 (3 donors) (IL-2 2.5 ng/mL); test: as above; conditions: 72 h
[25] = tested on: normal primary NK cells, pool 1 (3 donors), resting (IL-2 0 ng/mL); test: as above; conditions: 72 h
KAI3 (IL-2 2.5 ng/mL) [26] = test: as above; conditions: 72 h
[27] = tested on: normal NK cells expanded with K562-aAPC; test: percent inhibition of viability; higher = more inhibition; conditions: 72 h, IL-2 2.5 ng/mL
Description: (§1)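 Drug sensitivity and resistance testing on K562-aAPC-expanded normal NK cells: 5 concentrations (10-fold steps over a 10,000-fold range), 72 h at 37 °C, viability by CellTiter-Glo normalised to DMSO and benzethonium chloride controls; DSS from the fitted curve.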

[28] = tested on: normal NK cells expanded with K562-aAPC; test: drug sensitivity score (DSS) (DSS units); higher = more sensitive; extreme values may be limits of the assay; conditions: 72 h; IL-2 2.5 ng/mL
Description: as §1

CC(C)c1cc(-c2n[nH]c(=O)n2-c2ccc3c(ccn3C)c2)c(O)cc1O [Ganetespib] (max concentration tested 1000 nM)
percent inhibition of viability [%]
Conditions	0.1 nM	1 nM	10 nM	100 nM	1000 nM
DERL-7 (IL-2 2.5 ng/mL) [7]	-4.38	6.84	68.9	101	101
IMC-1 (IL-2 20 ng/mL) [8]	-2.6	-2.72	-0.68	99.7	101
KAI3 (IL-2 2.5 ng/mL) [13]	-0.77	-8.2	40.1	101	107
KHYG-1 (IL-2 2.5 ng/mL) [4]	1.44	4.41	5.54	99.7	109
NK-92 (IL-2 2.5 ng/mL) [3]	-6.96	-10.1	22.3	97.8	105
NK-YS (IL-2 2.5 ng/mL) [10]	-2.27	-6.04	33.9	101	107
NKL (IL-2 2.5 ng/mL) [6]	-3.59	1.19	45.1	90	92.9
SNK-6 (IL-2 2.5 ng/mL) [5]	-23.6	-15.5	5.21	86.1	88.1
YT (IL-2 2.5 ng/mL) [2]	-3.81	-4.31	1.84	93.2	99.1
[1]	1.74	4.42	62.4	86.4	86.4
[9]	-14.5	-11	45.4	78.5	79.9
[11]	-4.93	1.18	65.2	77.6	79.6
[12]	2.3	-0.42	39.1	41.8	52.9
[27]	-7.81	-3.48	56	98.1	99.3

Conditions	drug sensitivity score
DERL-7 (IL-2 2.5 ng/mL) [20]	26.6
IMC-1 (IL-2 20 ng/mL) [21]	17.9
KAI3 (IL-2 2.5 ng/mL) [26]	23.3
KHYG-1 (IL-2 2.5 ng/mL) [17]	18.7
NK-92 (IL-2 2.5 ng/mL) [16]	21.4
NK-YS (IL-2 2.5 ng/mL) [23]	22.8
NKL (IL-2 2.5 ng/mL) [19]	22
SNK-6 (IL-2 2.5 ng/mL) [18]	16.5
YT (IL-2 2.5 ng/mL) [15]	17.1
[14]	23.5
[22]	20.1
[24]	22.3
[25]	14.4
[28]	24.6
